Experiment [1] addresses T1, IL-1β (Homo sapiens, UniProt P01584). Briefly: 19F-reporter displacement assay with (S)-1 as probe. Format: binding. Set-up: Mature hIL-1β was expressed in Escherichia coli; made in house; host or cells: Escherichia coli BL21 (DE3), pET17b. How it is done: Protein and reporter concentrations were 10 and 40 μM, respectively. To account for changes in sample homogeneity, samples contained 1-(2,2,2-trifluoroacetyl)piperidine-4-carboxylic acid as an internal reference for scaling signal intensities. Three concentrations of the competitor were typically measured, and the related displacement of the probe was converted into Ki-values according to Dalvit and Vulpetti[17]. […] This process was automated with FRPipe, an in-house developed Python script (https://github.com/Novartis/FRPipe) that allows for streamlined analysis of such experiments. […] For visual inspection, an overview containing relevant ^19F peaks, fitting curves, and proton spectra was plotted.
Supplementary Figure 2. 13C-NMR and 19F-NMR reporter assays to monitor early structure activity relationships of analogues of 1. a, b Early structure activity relationships monitored by protein-observed and c-f 19F-NMR reporter assays, exemplified for compound 8. a 1H-13C-HMQC spectra of hIL-1b (50 µM) were acquired in the presence (red) and absence (blue) of 500 µM compound and rows were extracted at the w1-frequency of the peak corresponding to Leu60 Cd1H3. b The degree of protein binding was estimated from the ratio I/I0, where I and I0 correspond to the signal in the presence and absence of compound, respectively. c For the assessment of the KI-values, the signal intensity of a reporter molecule (S)-1 was monitored in 19F-transverse relaxation experiments run in the absence and presence of increasing amounts of compound. d All intensities were scaled to the intensity of an internal standard (all signals in panel c and d are shifted on the X-axis for clarity). e KI-values were retrieved from theoretical binding curves calculated for each compound concentration8. f One-dimensional 1H-NMR spectra were recorded for each assay mixture to assess the structural integrity and solubility of the compound in the sample.
(1 picture or pasted object on this page, not shown here)

Experiment [2] has as its target T1, IL-1β. Kind of experiment: SPR binding of compounds to immobilized hIL-1β. Set-up: Mature hIL-1β was expressed in Escherichia coli; made in house; host or cells: Escherichia coli BL21 (DE3), pET17b. How it is done:
All SPR experiments were performed with an SPR-32 instrument (Bruker Daltonics SPR, Hamburg, Germany). SPR chips were from XanTec bioanalytics GmbH (Düsseldorf, Germany).
C-terminally avi-tagged hIL-1β protein was immobilized onto a SAHC200M chip with a neutravidin-coated surface. Immobilization was performed with a protein injection of 0.02 mg/ml IL-1β diluted in PBS pH 7.5 (Gibco 70011-036, 10×), 0.05% Tween-20 for 5 min at 10 μl/min. The running buffer for binding studies of compounds was PBS pH 7.4, 0.05% Tween-20, and 2% DMSO. For the correction of small DMSO variations between samples, injections of 6 solvent samples ranging from 1% to 3% DMSO were run. Compound measurements were performed in MICK mode (multiple injection cycles kinetic) with a dose–response of 10 concentrations. Dissociation constants for compounds (KD) were obtained by determining steady-state fit that followed the 1:1 Langmuir model.
Data analysis was performed with the Sierra Analyzer 3.4.0 software from Bruker. Signal intensities were corrected for nonspecific binding to the surface by subtracting intensities from the reference surface from those of the hIL-1β surfaces (first reference subtraction) and by subtracting the buffer injection (second reference subtraction). KD values were carried out by determining a reporting point close to the end of the injection, used for steady-state fit, in addition to a kinetic fit delivering kon- and koff-values; both fitting models followed the 1:1 Langmuir equation.
Supplementary Figure 3. De termination of binding af fi nit ie s for se l ec ted ana l ogues of 1 by SPR. a - d Gr ap hs of exemplary experimen ts are given , where the sat urat ion of hI L-1b immobil ized on a chip was monitored at various concentrations of compound 3, 12, 10, and 11, respectively. Th e saturati on reached at equ ilibri um (insert) was plo tt ed versus the admini stered concentration and the equ ilibri um bin ding constant was derived from a non-li near lea st square fitting routine. e equ ilibri um and f kinetic bin ding of (S)-2 to IL-1b (kon = 1. 15 x 105 M-1 s-1 and koff = 0. 12 s-1).
Background: Surface plasmon resonance follows binding to a sensor surface in real time, without labels.

The next experiment addresses T2, IL-1α (Homo sapiens, UniProt P01583).
T2 sequence (P01583 113-271): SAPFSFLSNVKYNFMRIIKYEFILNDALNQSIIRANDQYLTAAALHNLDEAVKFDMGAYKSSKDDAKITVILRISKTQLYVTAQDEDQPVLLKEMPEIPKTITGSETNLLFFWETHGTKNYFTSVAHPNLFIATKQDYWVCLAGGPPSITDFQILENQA
Kind of experiment: TR-FRET IL-1α/hIL-1R1 receptor displacement assay. Format: biochemical. Set-up: TR-FRET raw data: scale not given here. How it is done: After 1 h incubation at room temperature, hIL-1R1 (1–332; Alexa 647 labeled; 50 nM final concentration) and anti-His-Europium W1024 (Perkin Elmer; Cat.No. AD0401, 1 nM final concentration) were added to a final volume of 10 μl per well. After 1 h of incubation at room temperature, time-resolved fluorescence was measured at λexc = 320 ± 20 nm, λem = 620 ± 25 nm/665 ± 25 nm using a Pherastar FSX plate reader. All experiments were run in triplicates. The data provided a typical saturation-binding curve, and the IC50 values were calculated by fitting the results to the Hill equation using Prism 7.0 and the in-house software Helios.
Background: In TR-FRET formats the signal depends on donor and acceptor labels being close together.

Setting [3] is: 19F-reporter Ki, protein 10 μM, reporter (S)-1 40 μM.
The mark [4] stands for this setting: 19F-reporter, individual experiments (Exp1-58), source data.
[5] abbreviates: source data, read-out: SPR Kd, Mean.
The mark [6] stands for this setting: source data, read-out: SPR Kd, individual experiments (Exp1-5).
The mark [7] stands for this setting: steady-state fit, 1:1 Langmuir, read-out: SPR KD.
Setting [8] is: IL-1alpha, 0.01 uM, per experiment.
The mark [9] stands for this setting: IL-1alpha, 0.1 uM, per experiment.
[10] abbreviates: IL-1alpha, 0.2 uM, per experiment.
Where [11] appears, read: IL-1alpha, 2 uM, per experiment.
Where [12] appears, read: IL-1alpha, 63 uM, per experiment.
Where [13] appears, read: IL-1alpha, 200 uM, per experiment.

Each structure is given as a SMILES string. “And” between values parts separate entries of the source, which are not always exact repeats. Equal values may be shown once. Read-outs that look alike come from different tables or passages of the source.

T1 sequence (P01584 117-269): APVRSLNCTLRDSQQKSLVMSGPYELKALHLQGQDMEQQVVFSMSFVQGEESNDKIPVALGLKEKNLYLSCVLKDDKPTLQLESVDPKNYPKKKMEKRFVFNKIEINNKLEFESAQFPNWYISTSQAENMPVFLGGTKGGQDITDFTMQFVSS

As usually defined, the Ki is the dissociation constant of the complex between target and ligand, obtained from inhibition or displacement. For orientation: Kd means a measure of binding affinity in units of concentration. The term IC50 denotes the concentration that gives 50% inhibition. On to `Cc1ccc2c(c1)NC(=O)C2(O)c1cc(-c2ccc(C(=O)O)cc2)ccc1O` (centres unmarked) [Compound 10], for which the Ki at IL-1β [1] (setting [3]) was 75 ± 40 µM; on IL-1β [1] (setting [4]) it was 103 µM and 47 µM. In addition, the Kd is 43.6 µM on IL-1β [2] (setting [5]); 58 µM and 63 µM and 27 µM and 26 µM at IL-1β [2] (setting [6]); 44 ± 17 µM at IL-1β [2] (setting [7]). Also, the IC50 at IL-1α (read-out: TR-FRET IL-1α IC50) is over 200 µM.
For `O=C(O)c1ccccc1-c1ccc(O)c(C2(O)C(=O)Nc3cc(Cl)ccc32)c1` (centres unmarked) [Compound 11], the Ki on IL-1β [1] (setting [3]) was 63 ± 41 µM; at IL-1β [1] (setting [4]) it was 92 µM and 34 µM. The Kd at IL-1β [2] (setting [5]) is 31.8 µM; at IL-1β [2] (setting [6]), 34 µM and 37 µM and 36 µM and 26.3 µM and 25.7 µM; on IL-1β [2] (setting [7]), 32 ± 5 µM. Further, the 50% inhibitory concentration (IC50) at IL-1α (read-out: TR-FRET IL-1α IC50) is over 200 µM.
The koff is the first-order rate constant of dissociation. By kon is commonly meant a measure of how fast the partners come together. For orientation: inhibition means the change of the read-out against control, counted positive when it falls. `Cc1ccc2c(c1)NC(=O)[C@@]2(c1cn[nH]c1)c1cc(-c2ccc(C(=O)O)cc2C(=O)O)ccc1O` [Compound (S)-2]: at IL-1β [1] (protein 10 μM, reporter (S)-1 40 μM, read-out: 19F-reporter Ki), the Ki was under 10 µM. This compound also had a koff on IL-1β [2] (kinetic fit) of 0.12 s⁻¹. Moreover, the kon on IL-1β [2] (kinetic fit) stood at 120000 M⁻¹ s⁻¹. For the same compound, the Kd on IL-1β [2] (setting [5]) is 1.1 µM; on IL-1β [2] (setting [6]), 1.1 µM (2×) and 1 µM; on IL-1β [2] (setting [7]), 1.1 µM. The “inhibition of the IL-1R1/IL-1α interaction” value on IL-1α is on record as “did not observe inhibition of IL-1α”. Also, the “TR-FRET calculated % inhibition” value is 3% on IL-1α (setting [8]); 2% at IL-1α (setting [9]); 3% on IL-1α (setting [10]); 2% and 11% on IL-1α (setting [11]); 8% and 2% at IL-1α (setting [12]); 7% and 1% on IL-1α (setting [13]). In addition, the TR-FRET raw data on IL-1α (setting [8]) is 96 and 97; at IL-1α (IL-1alpha, 0.02 uM, per experiment), 96; on IL-1α (setting [9]) it was 96 and 98; at IL-1α (setting [10]) it was 95 and 97; on IL-1α (IL-1alpha, 0.6 uM, per experiment), 99 and 89; at IL-1α (setting [11]), 98 and 90. The TR-FRET raw data was 87 and 97 at IL-1α (IL-1alpha, 6 uM, per experiment); 87 and 99 at IL-1α (IL-1alpha, 20 uM, per experiment); 93 and 98 on IL-1α (setting [12]); 94 and 99 on IL-1α (setting [13]). Moreover, on IL-1α (IL-1alpha, 0.01 uM, per experiment, read-out: TR-FRET calculated % inhibition), the inhibition at 0.01 µM was 4%. Also, the inhibition at 0.02 µM on IL-1α (IL-1alpha, 0.02 uM, per experiment, read-out: TR-FRET calculated % inhibition) was 5%. Besides, the inhibition at 0.1 µM at IL-1α (IL-1alpha, 0.1 uM, per experiment, read-out: TR-FRET calculated % inhibition) is 4%. The inhibition at 0.2 µM at IL-1α (IL-1alpha, 0.2 uM, per experiment, read-out: TR-FRET calculated % inhibition) is 6%. The IC50 at IL-1α (Il1a, read-out: TR-FRET IC50, individual experiments) was over 200 µM; on IL-1α (read-out: TR-FRET IL-1α IC50) it was over 200 µM.

(Values after article PMC10484922, “Discovery of a selective and biologically active low-molecular weight antagonist of human interleukin-1β” (Nature Communications, 2023).)
